In patent US8765940B2 (priority 2009, dated 2014) one finds Ki data, which are given here for 23 compounds.

Each structure is given as a SMILES string.

PI3Kδ, sequence (O00329 whole entry): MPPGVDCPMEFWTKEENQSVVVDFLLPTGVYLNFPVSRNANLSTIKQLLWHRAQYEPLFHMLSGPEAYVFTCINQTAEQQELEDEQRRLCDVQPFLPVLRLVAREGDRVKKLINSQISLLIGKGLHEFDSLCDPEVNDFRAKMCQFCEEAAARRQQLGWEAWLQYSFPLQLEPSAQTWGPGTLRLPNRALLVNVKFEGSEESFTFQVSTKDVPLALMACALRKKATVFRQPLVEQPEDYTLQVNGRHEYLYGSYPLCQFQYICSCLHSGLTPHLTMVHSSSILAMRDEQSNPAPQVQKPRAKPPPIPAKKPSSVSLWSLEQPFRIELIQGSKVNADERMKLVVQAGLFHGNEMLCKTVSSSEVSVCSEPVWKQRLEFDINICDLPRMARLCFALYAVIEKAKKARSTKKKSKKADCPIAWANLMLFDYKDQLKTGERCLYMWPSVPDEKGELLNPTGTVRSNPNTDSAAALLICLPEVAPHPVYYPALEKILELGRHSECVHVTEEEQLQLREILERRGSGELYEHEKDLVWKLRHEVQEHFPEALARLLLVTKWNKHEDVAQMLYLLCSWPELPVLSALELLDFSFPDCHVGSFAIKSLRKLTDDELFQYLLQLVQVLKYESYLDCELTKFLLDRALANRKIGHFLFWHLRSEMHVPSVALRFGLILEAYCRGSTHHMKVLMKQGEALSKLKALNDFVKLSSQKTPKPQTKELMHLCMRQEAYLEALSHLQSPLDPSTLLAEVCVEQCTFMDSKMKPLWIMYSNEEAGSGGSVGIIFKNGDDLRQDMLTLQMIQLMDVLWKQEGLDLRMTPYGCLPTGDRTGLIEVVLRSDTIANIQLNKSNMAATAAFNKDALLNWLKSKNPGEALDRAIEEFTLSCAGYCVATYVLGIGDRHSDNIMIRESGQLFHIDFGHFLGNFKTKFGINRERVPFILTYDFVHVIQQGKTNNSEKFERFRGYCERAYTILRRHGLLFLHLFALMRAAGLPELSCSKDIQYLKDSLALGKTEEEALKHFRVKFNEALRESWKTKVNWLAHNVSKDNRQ
PI3Kδ, sequence (P27986 whole entry partner): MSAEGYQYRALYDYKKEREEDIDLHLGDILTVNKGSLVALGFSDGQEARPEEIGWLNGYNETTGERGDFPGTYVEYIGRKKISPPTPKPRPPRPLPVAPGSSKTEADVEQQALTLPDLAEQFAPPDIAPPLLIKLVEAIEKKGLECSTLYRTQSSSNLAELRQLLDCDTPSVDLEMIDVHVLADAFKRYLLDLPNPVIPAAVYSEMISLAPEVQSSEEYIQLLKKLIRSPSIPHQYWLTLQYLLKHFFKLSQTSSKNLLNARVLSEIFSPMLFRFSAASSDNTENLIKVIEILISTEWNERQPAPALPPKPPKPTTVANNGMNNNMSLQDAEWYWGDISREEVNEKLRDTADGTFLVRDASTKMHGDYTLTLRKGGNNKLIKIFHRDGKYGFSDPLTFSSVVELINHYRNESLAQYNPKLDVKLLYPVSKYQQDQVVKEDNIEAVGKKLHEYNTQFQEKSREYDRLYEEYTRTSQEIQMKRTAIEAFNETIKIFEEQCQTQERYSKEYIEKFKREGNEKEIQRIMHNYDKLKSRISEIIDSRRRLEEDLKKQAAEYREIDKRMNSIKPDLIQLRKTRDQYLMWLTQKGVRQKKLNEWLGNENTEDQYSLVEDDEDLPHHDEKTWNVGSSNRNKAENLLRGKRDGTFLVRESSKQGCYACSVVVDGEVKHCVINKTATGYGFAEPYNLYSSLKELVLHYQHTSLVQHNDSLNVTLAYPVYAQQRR

The experiment addresses PI3Kδ (Homo sapiens (Human), UniProt O00329). Type of experiment: biochemical. Particulars: PI3Kδ Alphascreen assay. On the technique in general: Bead proximity is the source of the signal in Alpha formats.
For `Cc1c(C(F)(F)F)nc2ccc(Cl)cc2c1N1CC(C)(C)c2ccc(N3CCOCC3)cc21` [6-chloro-4-(3,3-dimethyl-6-(4-morpholinyl)-2,3-dihydro-1H-indol-1-yl)-3-methyl-2-(trifluoromethyl)quinoline], the inhibition constant Ki – broadly, the dissociation constant of the complex between target and ligand, obtained from inhibition or displacement – amounted to 985 nM. The figure for `Cc1c(Nc2ccccn2)nc2cc(F)cc(F)c2c1N1CC(C)(C)c2ncc(N3CCOCC3)cc21` [4-(3,3-dimethyl-6-morpholino-2,3-dihydro-1H-pyrrolo[3,2-b]pyridin-1-yl)-5,7-difluoro-3-methyl-N-(pyridin-2-yl)quinolin-2-amine] is 17.1 nM; for `Cc1nc2c(Cl)cccc2c(N2CC3(CCOCC3)c3ncc(N4CCOCC4)cc32)c1C` [1′-(8-chloro-2,3-dimethyl-4-quinolinyl)-6′-(4-morpholinyl)-1′,2,2′,3,5,6-hexahydrospiro[pyran-4,3′-pyrrolo[3,2-b]pyridine]] it is 2.68 nM. With `C=C(c1ccccc1)c1nc2cc(F)cc(F)c2c(N2CC(C)(C)c3ncc(N4CCOCC4)cc32)c1C` [4-(3,3-dimethyl-6-(4-morpholinyl)-2,3-dihydro-1H-pyrrolo[3,2-b]pyridin-1-yl)-5,7-difluoro-3-methyl-2-(1-phenylethenyl)quinoline], the affinity, expressed as Ki, was 2.9 nM. In the case of `Cc1cncc(-c2nc3cc(F)cc(F)c3c(N3CC(C)(C)c4ncc(N5CCOCC5)cc43)c2C)c1` [4-(3,3-dimethyl-6-(4-morpholinyl)-2,3-dihydro-1H-pyrrolo[3,2-b]pyridin-1-yl)-5,7-difluoro-3-methyl-2-(5-methyl-3-pyridinyl)quinoline], affinity was put at a Ki of 3 nM.

Compound `Cc1nc2ccccc2c(N2CC3(CCOCC3)c3ccc(N4CCOCC4)cc32)c1C` [1-(2,3-dimethyl-4-quinolinyl)-6-(4-morpholinyl)-1,2,2′,3′,5′,6′-hexahydrospiro[indole-3,4′-pyran]] had an inhibition constant (Ki) of 450 nM. The value for `Cc1c(-c2ccccc2)nc2ccccc2c1N1CC2(CCOCC2)c2ccc(N3CCOCC3)cc21` [1-(3-methyl-2-phenyl-4-quinolinyl)-6-(4-morpholinyl)-1,2,2′,3′,5′,6′-hexahydrospiro[indole-3,4′-pyran]] was 91.3 nM; that for `Cc1c(-c2cccc(F)c2)nc2ncccc2c1N1CC2(CCOCC2)c2ncc(N3CCOCC3)cc21` [1′-(2-(3-fluorophenyl)-3-methyl-1,8-naphthyridin-4-yl)-6′-(4-morpholinyl)-1′,2,2′,3,5,6-hexahydrospiro[pyran-4,3′-pyrrolo[3,2-b]pyridine]] was 27.8 nM; that for `Cc1c(-c2ccccn2)nc2cnccc2c1N1CC2(CCOCC2)c2ncc(N3CCOCC3)cc21` [1′-(3-methyl-2-(2-pyridinyl)-1,7-naphthyridin-4-yl)-6′-(4-morpholinyl)-1′,2,2′,3,5,6-hexahydrospiro[pyran-4,3′-pyrrolo[3,2-b]pyridine]] was 30.7 nM. As for `Cc1c(-c2ccccn2)nc2cc(F)ccc2c1N1CC2(CCOCC2)c2ncc(-c3cn[nH]c3)cc21` [1′-(7-fluoro-3-methyl-2-(2-pyridinyl)-4-quinolinyl)-6′-(1H-pyrazol-4-yl)-1′,2,2′,3,5,6-hexahydrospiro[pyran-4,3′-pyrrolo[3,2-b]pyridine]], the affinity corresponds to a Ki of 320 nM. The figure for `Cc1ccnc(-c2nc3cc(F)cc(F)c3c(N3CC(C)(C)c4ncc(N5CCOCC5)cc43)c2C)c1` [4-(3,3-dimethyl-6-(4-morpholinyl)-2,3-dihydro-1H-pyrrolo[3,2-b]pyridin-1-yl)-5,7-difluoro-3-methyl-2-(4-methyl-2-pyridinyl)quinoline] is 18.4 nM; for `Cc1nc2ccccc2c(N2CC(C)(C)c3ccc(N4CCOCC4)cc32)c1C` [4-(3,3-dimethyl-6-(4-morpholinyl)-2,3-dihydro-1H-indol-1-yl)-2,3-dimethylquinoline] it is 362 nM; for `Cc1c(-c2ccccc2F)nc2cc(F)ccc2c1N1CC(C)(C)c2ccc(N3CCOCC3)cc21` [4-(3,3-dimethyl-6-(4-morpholinyl)-2,3-dihydro-1H-indol-1-yl)-7-fluoro-2-(2-fluorophenyl)-3-methylquinoline] it is 197 nM.

As to `Cc1c(-c2ccccc2S(C)(=O)=O)nc2cc(F)ccc2c1N1CC(C)(C)c2ncc(N3CCOCC3)cc21` [4-(3,3-dimethyl-6-(4-morpholinyl)-2,3-dihydro-1H-pyrrolo[3,2-b]pyridin-1-yl)-7-fluoro-3-methyl-2-(2-(methylsulfonyl)phenyl)quinoline], the Ki came to 7.8 nM. On to `CC1(C)CN(c2c3c(nc4ccc(Cl)cc24)CCC3)c2cc(N3CCOCC3)ccc21` [7-chloro-9-(3,3-dimethyl-6-(4-morpholinyl)-2,3-dihydro-1H-indol-1-yl)-2,3-dihydro-1H-cyclopenta[b]quinoline], for which the inhibitory constant (Ki) was determined as 772 nM.

Turning to `CC(C)c1c(-c2ccccn2)nc2cc(F)ccc2c1N1CC(C)(C)c2ncc(N3CCOCC3)cc21` [4-(3,3-dimethyl-6-(4-morpholinyl)-2,3-dihydro-1H-pyrrolo[3,2-b]pyridin-1-yl)-7-fluoro-3-(1-methylethyl)-2-(2-pyridinyl)quinoline], the inhibition constant (Ki) is 5.87 nM. As to `Cc1c(-c2ccccn2)nc2cc(F)ccc2c1N1CC(C)(C)c2ncc(-c3cn[nH]c3)cc21` [4-(3,3-dimethyl-6-(1H-pyrazol-4-yl)-2,3-dihydro-1H-pyrrolo[3,2-b]pyridin-1-yl)-7-fluoro-3-methyl-2-(2-pyridinyl)quinoline], the affinity, expressed as Ki, was 95.2 nM. The figure for `Cc1c(-c2ccccc2)nc2ncccc2c1N1CC2(CCOCC2)c2ncc(N3CCOCC3)cc21` [1′-(3-methyl-2-phenyl-1,8-naphthyridin-4-yl)-6′-(4-morpholinyl)-1′,2,2′,3,5,6-hexahydrospiro[pyran-4,3′-pyrrolo[3,2-b]pyridine]] is 22.6 nM; for `Cc1nc2ccc(Cl)cc2c(-n2ccc3c(C#N)cc(-c4cn[nH]c4)cc32)c1C` [1-(6-chloro-2,3-dimethyl-4-quinolinyl)-6-(1H-pyrazol-4-yl)-1H-indole-4-carbonitrile] it is 1080 nM. As for `Cc1c(-c2cc(C(F)(F)F)cc(C(F)(F)F)c2)nc2cc(F)ccc2c1N1CC(C)(C)c2ccc(N3CCOCC3)cc21` [2-(3,5-bis(trifluoromethyl)phenyl)-4-(3,3-dimethyl-6-(4-morpholinyl)-2,3-dihydro-1H-indol-1-yl)-7-fluoro-3-methylquinoline], the Ki stood at 3080 nM.

Regarding `Cc1c(Cc2cccc(C(F)(F)F)c2)nc2cc(F)cc(F)c2c1N1CC(C)(C)c2ncc(N3CCOCC3)cc21` [4-(3,3-dimethyl-6-(4-morpholinyl)-2,3-dihydro-1H-pyrrolo[3,2-b]pyridin-1-yl)-5,7-difluoro-3-methyl-2-(3-(trifluoromethyl)benzyl)quinoline], affinity was put at a Ki of 17.3 nM. `Cc1c(-c2cccc(F)c2)nc2ncccc2c1N1CC(C)(C)c2ncc(N3CCOCC3)cc21` [4-(3,3-dimethyl-6-(4-morpholinyl)-2,3-dihydro-1H-pyrrolo[3,2-b]pyridin-1-yl)-2-(3-fluorophenyl)-3-methyl-1,8-naphthyridine] returned an inhibition constant Ki of 5.38 nM. On to `Cc1c(-c2ccccn2)nc2c(F)cccc2c1N1CC(C)(C)c2ccc(N3CCOCC3)cc21` [4-(3,3-dimethyl-6-(4-morpholinyl)-2,3-dihydro-1H-indol-1-yl)-8-fluoro-3-methyl-2-(2-pyridinyl)quinoline], for which the affinity, expressed as Ki, was 93.7 nM.
